The text below walks through data of PMC8007111, “Novel Potent Muscarinic Receptor Antagonists: Investigation on the Nature of Lipophilic Substituents in the 5- and/or 6-Positions of the 1,4-Dioxane Nucleus” (Journal of Medicinal Chemistry, 2020).

Some results are limits rather than exact numbers.

One assay concerns the target T1, hM2 mAChR (Homo sapiens, UniProt P08172).
T1 construct: expressed in transfected cells; host or cells: CHO-K1 (membrane preparation)
T1 sequence (P08172 1-466): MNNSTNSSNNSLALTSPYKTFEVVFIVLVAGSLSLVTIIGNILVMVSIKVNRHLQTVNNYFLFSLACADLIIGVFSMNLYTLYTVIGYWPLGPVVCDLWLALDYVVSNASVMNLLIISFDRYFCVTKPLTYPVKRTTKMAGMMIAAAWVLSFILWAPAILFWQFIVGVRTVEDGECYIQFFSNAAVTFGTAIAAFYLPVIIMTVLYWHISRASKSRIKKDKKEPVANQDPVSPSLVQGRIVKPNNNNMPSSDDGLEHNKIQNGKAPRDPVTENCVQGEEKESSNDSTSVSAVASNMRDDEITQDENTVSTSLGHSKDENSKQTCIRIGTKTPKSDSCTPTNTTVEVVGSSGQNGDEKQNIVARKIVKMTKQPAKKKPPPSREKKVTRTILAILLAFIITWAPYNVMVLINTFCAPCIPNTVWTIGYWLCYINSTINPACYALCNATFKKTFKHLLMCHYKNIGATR
Kind of assay: [3H]NMS inhibition radioligand binding, hM2 in CHO-K1 cell membranes. The note with it: [3H]NMS, CHO-K1 cell membranes, mean ± S.E.M.; for Ki: read-out: pKi hM2 (converted). As for the experimental part:
(§1) CHO-K1 cells stably transfected with the human muscarinic receptor subtypes (hM1–5) were grown in Dulbecco’s modified Eagle’s medium (DMEM) with nutrient mixture F12 (DMEM/F12, 50/50), containing 10% fetal bovine serum, penicillin (100 U/mL), streptomycin (100 U/mL), L-glutamine (4 mM), and geneticin (G-418, 50 μg/mL) at 37 °C in a 5% CO2 humidified incubator. […] Serum (0.7 mL) was added to inactivate the trypsin, and the cells were spun down by centrifuging at 300g for 5 min. The cells were then resuspended in ice-cold 25 mM sodium phosphate buffer containing 5 mM MgCl2, pH 7.4 (binding buffer) and homogenized using a cell disrupter (Ultra-Turrax, setting 3, 30 s). The homogenate was sedimented by centrifugation (17,000g, 15 min). The supernatant was discarded, and the resulting membrane pellets were resuspended with Ultra-Turrax in the same buffer to give a final protein concentration of 1–2 mg/mL. The protein content was determined by the method of Bradford (1976) with bovine serum albumin (Sigma) as a standard and stored at −80 °C.
(§2) Inhibition radioligand binding assays were conducted as previously described[48],[49] with 0.2 nM [^3H]NMS in binding buffer in a final volume of 250 μL. Nonspecific binding was defined in the presence of 10 μM atropine. Briefly, membrane fractions (about 25–70 μg/mL of protein) were incubated with radioligand and unlabeled test compounds for 2 h at r.t. Bound and free radioactivity were separated by filtering the assay mixture through UniFilter GF/B plates using a FilterMate Cell Harvester (PerkinElmer Life and Analytical Science). The filter bound radioactivity was counted by a TopCount NXT Microplate Scintillation Counter (PerkinElmer Life and Analytical Science). Data (cpm) were normalized to percentage-specific binding and analyzed using a four-parameter logistic equation in GraphPad Prism 5.02; IC50 values were determined, and Ki values were calculated.[59]

For the next assay, the target named is T2, hM1 mAChR (Homo sapiens, UniProt P11229).
T2 construct: expressed in transfected cells; host or cells: CHO-K1 (membrane preparation)
T2 sequence (P11229 1-460): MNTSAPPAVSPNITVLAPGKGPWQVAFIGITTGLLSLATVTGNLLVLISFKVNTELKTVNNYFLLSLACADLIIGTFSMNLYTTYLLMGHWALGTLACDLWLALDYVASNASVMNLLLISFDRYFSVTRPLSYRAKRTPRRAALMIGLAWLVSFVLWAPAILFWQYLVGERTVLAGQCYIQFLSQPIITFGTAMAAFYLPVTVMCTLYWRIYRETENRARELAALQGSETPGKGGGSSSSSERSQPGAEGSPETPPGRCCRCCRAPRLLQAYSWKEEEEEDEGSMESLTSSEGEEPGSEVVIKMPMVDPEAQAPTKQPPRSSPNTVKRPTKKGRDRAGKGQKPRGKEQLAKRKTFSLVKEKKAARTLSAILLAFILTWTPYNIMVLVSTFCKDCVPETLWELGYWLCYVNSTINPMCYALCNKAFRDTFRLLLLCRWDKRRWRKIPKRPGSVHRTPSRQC
Kind of assay: [3H]NMS inhibition radioligand binding, hM1 in CHO-K1 cell membranes. Conditions: [3H]NMS, CHO-K1 cell membranes, mean ± S.E.M.; for Ki: read-out: pKi hM1 (converted). As for the experimental part:
as §1, §2

Another assay has as its target T3, hM4 mAChR (Homo sapiens, UniProt P08173).
T3 construct: expressed in transfected cells; host or cells: CHO-K1 (membrane preparation)
T3 sequence (P08173 1-479): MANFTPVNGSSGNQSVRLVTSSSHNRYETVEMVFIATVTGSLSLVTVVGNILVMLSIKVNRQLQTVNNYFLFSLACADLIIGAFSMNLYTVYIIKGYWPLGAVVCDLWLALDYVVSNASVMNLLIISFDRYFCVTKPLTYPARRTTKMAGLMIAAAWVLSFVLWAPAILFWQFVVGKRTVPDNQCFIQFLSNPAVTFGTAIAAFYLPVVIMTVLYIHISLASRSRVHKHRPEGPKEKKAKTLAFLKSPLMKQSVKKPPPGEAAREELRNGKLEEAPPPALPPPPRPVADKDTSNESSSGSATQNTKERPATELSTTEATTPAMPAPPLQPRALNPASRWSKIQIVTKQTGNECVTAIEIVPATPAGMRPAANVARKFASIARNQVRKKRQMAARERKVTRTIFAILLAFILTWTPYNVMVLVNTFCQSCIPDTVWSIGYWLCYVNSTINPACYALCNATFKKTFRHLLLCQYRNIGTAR
Kind of assay: [3H]NMS inhibition radioligand binding, hM4 in CHO-K1 cell membranes. The note with it: [3H]NMS, CHO-K1 cell membranes, mean ± S.E.M.; for Ki: read-out: pKi hM4 (converted). As for the experimental part:
as §1, §2

A further assay has as its target T4, hM5 mAChR (Homo sapiens, UniProt P08912).
T4 construct: expressed in transfected cells; host or cells: CHO-K1 (membrane preparation)
T4 sequence (P08912 1-532): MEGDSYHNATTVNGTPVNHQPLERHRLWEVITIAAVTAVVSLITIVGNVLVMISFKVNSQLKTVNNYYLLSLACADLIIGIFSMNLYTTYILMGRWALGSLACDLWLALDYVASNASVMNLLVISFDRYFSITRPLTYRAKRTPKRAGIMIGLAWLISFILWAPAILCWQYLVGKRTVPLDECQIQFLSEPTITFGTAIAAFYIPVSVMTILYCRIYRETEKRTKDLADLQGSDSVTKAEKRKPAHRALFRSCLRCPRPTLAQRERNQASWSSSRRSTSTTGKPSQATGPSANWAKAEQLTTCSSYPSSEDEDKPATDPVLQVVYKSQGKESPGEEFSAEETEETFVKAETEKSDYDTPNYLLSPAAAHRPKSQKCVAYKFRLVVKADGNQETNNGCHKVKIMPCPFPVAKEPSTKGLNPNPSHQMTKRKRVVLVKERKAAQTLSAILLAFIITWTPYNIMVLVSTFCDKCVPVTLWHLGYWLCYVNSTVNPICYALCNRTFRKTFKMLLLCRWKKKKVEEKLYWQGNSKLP
In words: [3H]NMS inhibition radioligand binding, hM5 in CHO-K1 cell membranes. The note with it: [3H]NMS, CHO-K1 cell membranes, mean ± S.E.M.; for Ki: read-out: pKi hM5 (converted). As for the experimental part:
as §1, §2

For a further assay, the target named is T5, hM3 mAChR (Homo sapiens, UniProt P20309).
T5 construct: expressed in transfected cells; host or cells: CHO-K1 (membrane preparation)
T5 sequence (P20309 whole entry): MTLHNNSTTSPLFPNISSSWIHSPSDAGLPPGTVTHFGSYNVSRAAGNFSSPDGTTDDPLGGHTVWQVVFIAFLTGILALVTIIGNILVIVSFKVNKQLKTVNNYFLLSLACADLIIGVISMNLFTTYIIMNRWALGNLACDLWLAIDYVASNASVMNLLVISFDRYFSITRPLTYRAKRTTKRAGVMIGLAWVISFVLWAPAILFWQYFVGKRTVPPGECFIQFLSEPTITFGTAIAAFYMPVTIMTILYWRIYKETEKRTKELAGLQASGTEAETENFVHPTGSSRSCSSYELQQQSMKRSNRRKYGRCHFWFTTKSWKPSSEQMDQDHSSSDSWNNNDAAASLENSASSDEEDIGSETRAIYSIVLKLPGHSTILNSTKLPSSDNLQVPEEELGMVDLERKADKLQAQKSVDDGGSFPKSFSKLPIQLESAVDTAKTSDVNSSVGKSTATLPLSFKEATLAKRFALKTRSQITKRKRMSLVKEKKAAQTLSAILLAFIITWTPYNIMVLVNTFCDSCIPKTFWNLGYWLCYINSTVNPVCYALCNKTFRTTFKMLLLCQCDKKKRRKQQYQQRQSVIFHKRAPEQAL
Kind of assay: [3H]NMS inhibition radioligand binding, hM3 in CHO-K1 cell membranes. Conditions: for pKi hM3 / Ki: [3H]NMS, CHO-K1 cell membranes, mean ± S.E.M.; for Ki: read-out: pKi hM3 (converted). As for the experimental part: as §1, §2

Take `C[N+](C)(C)C[C@@H]1CO[C@H](c2ccc([S+]([O-])c3ccccc3)cc2)CO1.[I-]` (relative stereo) [16a, 1-((2R*,5R*)-5-(4-(Phenylsulfinyl)phenyl)-1,4-dioxan-2-yl)-N,N,N-trimethylmethanaminium Iodide]: on hM2 mAChR, the “pKi hM2” value is 5.52 ± 0.02. For the same molecule, on hM1 mAChR, the “pKi hM1” value was less than 5. Also, the “pKi hM4” value on hM4 mAChR is less than 5. At hM5 mAChR, the “pKi hM5” value came to 5.21 ± 0.08. The “pKi hM3” value on hM3 mAChR is less than 5.
`C[N+](C)(C)C[C@@H]1CO[C@@H](c2ccc([S+]([O-])c3ccccc3)cc2)CO1.[I-]` (relative stereo) [16b, 1-((2R*,5S*)-5-(4-(Phenylsulfinyl)phenyl)-1,4-dioxan-2-yl)-N,N,N-trimethylmethanaminium Iodide]: the “pKi hM2” value at hM2 mAChR stood at 6.38 ± 0.10. The “pKi hM1” value on hM1 mAChR stood at 5.17 ± 0.09. The “pKi hM4” value at hM4 mAChR is 5.42 ± 0.02. The “pKi hM5” value on hM5 mAChR is given as 5.72 ± 0.15. On hM3 mAChR, the “pKi hM3” value came to 5.88 ± 0.14.
As for `C[N+](C)(C)C[C@@H]1CO[C@H](c2ccc(S(=O)(=O)c3ccccc3)cc2)CO1.[I-]` (relative stereo) [17a, 1-((2R*,5R*)-5-(4-(Phenylsulfonyl)phenyl)-1,4-dioxan-2-yl)-N,N,N-trimethylmethanaminium Iodide], the “pKi hM2” value at hM2 mAChR stood at 6.39 ± 0.04. Also, the “pKi hM1” value on hM1 mAChR was less than 5. Besides, the “pKi hM4” value at hM4 mAChR is less than 5. Moreover, the “pKi hM5” value at hM5 mAChR is on record as 5.05 ± 0.08. At hM3 mAChR, the “pKi hM3” value was 5.14 ± 0.10.
As for `C[N+](C)(C)C[C@@H]1CO[C@@H](c2ccc(S(=O)(=O)c3ccccc3)cc2)CO1.[I-]` (relative stereo) [17b, 1-((2R*,5S*)-5-(4-(Phenylsulfonyl)phenyl)-1,4-dioxan-2-yl)-N,N,N-trimethylmethanaminium Iodide], the “pKi hM2” value at hM2 mAChR is less than 5. Further, the “pKi hM1” value at hM1 mAChR is less than 5. In addition, at hM4 mAChR, the “pKi hM4” value is reported as less than 5. Moreover, the “pKi hM5” value at hM5 mAChR is given as less than 5. Moreover, at hM3 mAChR, the “pKi hM3” value is given as less than 5.
As to `C[N+](C)(C)C[C@@H]1CO[C@@H](c2ccccc2)[C@H](c2ccccc2)O1.[I-]` (relative stereo) [18a, 1-((2R*,5S*,6S*)-5,6-Diphenyl-1,4-dioxan-2-yl)-N,N,N-trimethylmethanaminium Iodide], the “pKi hM2” value at hM2 mAChR is recorded as 5.72 ± 0.09. Besides, the “pKi hM1” value at hM1 mAChR is recorded as 5.85 ± 0.09. Moreover, the “pKi hM4” value at hM4 mAChR worked out at 5.25 ± 0.08. Moreover, on hM5 mAChR, the “pKi hM5” value is listed as 5.34 ± 0.07. For the same molecule, the “pKi hM3” value at hM3 mAChR worked out at 5.33 ± 0.12.
The like results for `C[N+](C)(C)C[C@@H]1CO[C@H](c2ccccc2)[C@@H](c2ccccc2)O1.[I-]` (relative stereo) [18b, 1-((2R*,5R*,6R*)-5,6-Diphenyl-1,4-dioxan-2-yl)-N,N,N-trimethylmethanaminium Iodide] were, in that order, 5.65 ± 0.09, 6.30 ± 0.09, 5.40 ± 0.09, 5.52 ± 0.08 and 5.81 ± 0.10.
Taken in the same sequence, the figures for `C[N+](C)(C)C[C@@H]1CO[C@@H](c2ccccc2)[C@@H](c2ccccc2)O1.[I-]` (relative stereo) [18c, 1-((2R*,5S*,6R*)-5,6-Diphenyl-1,4-dioxan-2-yl)-N,N,N-trimethylmethanaminium Iodide] were 6.62 ± 0.08, 7.19 ± 0.07, 6.40 ± 0.06, 6.21 ± 0.01 and 6.45 ± 0.01.
Consider `CN(C)C[C@@H]1COC[C@](c2ccccc2)(C2CCCCC2)O1` (relative stereo) [33b, 1-((2R*,6R*)-6-Cyclohexyl-6-phenyl-1,4-dioxan-2-yl)-N,N-dimethylmethanamine], for which the “pKi hM2” value on hM2 mAChR is 7.88 ± 0.08. For the same molecule, the “pKi hM1” value on hM1 mAChR turned out to be 8.86 ± 0.16. Also, the “pKi hM4” value on hM4 mAChR is given as 8.62 ± 0.12. The “pKi hM5” value at hM5 mAChR amounted to 8.62 ± 0.17. In addition, the “pKi hM3” value at hM3 mAChR came out at 8.72 ± 0.10. Also, at hM3 mAChR (from binding affinities at hM3 and hM2), the M3/M2 selectivity ratio was determined as 7.0.
Take `C[N+](C)(C)C[C@@H]1COC(c2ccccc2)C(c2ccccc2)(c2ccccc2)O1` (stereo in doubt) [19a, 1-((2R*,5S*)-5,6,6-Triphenyl-1,4-dioxan-2-yl)-N,N,N-trimethylmethanaminium Iodide]: the Ki is 4370 nM at hM2 mAChR; 676 nM on hM1 mAChR; 3890 nM on hM4 mAChR; 3980 nM on hM5 mAChR; 2000 nM on hM3 mAChR.
Consider `C[N+](C)(C)C[C@@H]1COC(c2ccccc2)C(c2ccccc2)(c2ccccc2)O1` (stereo in doubt) [19b, 1-((2R*,5R*)-5,6,6-Triphenyl-1,4-dioxan-2-yl)-N,N,N-trimethylmethanaminium Iodide], for which the Ki was 2140 nM at hM2 mAChR; 550 nM at hM1 mAChR; 1170 nM on hM4 mAChR; 1450 nM on hM5 mAChR; 1100 nM at hM3 mAChR.
